Measured values as given in patent US11058690B2, “Use of cytochrome bc1 complex inhibitor in preparing pharmaceutical composition” (BEIJING WEILANZHIYUAN MEDICAL TECHNOLOGY CO., LTD., priority 2017, dated 2021).

Legend:
mice = assay: xylene-induced mouse ear swelling test; format: in vivo; conditions: 10 mg/Kg
Method: Fifty healthy adult male mice were randomly divided into 5 groups. […] […] One hour after administration, 20 μL of xylene was evenly applied to both sides of the right ear of mouse, and xylene was not applied to the left ear as self control. One hour later, the two ears were cut off, and two ear pieces were removed from the same parts of the two ears with a 6 mm hole punch. The two ear pieces were weighed on a precision balance, and the swelling degree (right ear piece weight-left ear piece weight) and swelling inhibition rate (right ear piece weight-left ear piece weight)/left ear piece weight×100%) were calculated.

Kunming male mice = assay: acetic acid writhing test on mice; format: in vivo, mouse; conditions: for Number of writhing times: within 30 min
SD rats = assay: carrageenan-induced rat paw swelling test; format: in vivo; conditions: 4 mg/Kg positive control
Method: Eighteen healthy adult male mice were randomly divided into 3 groups. FAPM (100 mg/kg) was administered intraperitoneally once a day for 3 consecutive days. The control group was injected with the same amount of solvent, and the positive drug dexamethasone (4 mg/kg) was administered intragastrically once a day for 3 consecutive days. Thirty minutes after the last administration, 0.1 mL of 1% carrageenan was injected subcutaneously into the right hind paw of each rat, and the plantar thickness was measured before injection and 1, 2 and 3 hours after injection. Three hours later, the rats were sacrificed by dislocation. The feet were cut off from the knee joints and weighed on a precision balance. The swelling degree of the paw (right foot weight-left foot weight) was calculated.

Kunming female mice [1] = assay: PGF2α-induced dysmenorrhea model in mice (diethylstilbestrol sensitization); format: in vivo, mouse; conditions: for Number of writhing times: within 30 min
Method: (§1) A mouse dysmenorrhea model was established with reference to Yang L., Cao Z., Yu B. & Chai C. An in vivo mouse model of primary dysmenorrhea. Exp Anim. 2015, August 64, 295-303. Adult healthy Kunming female mice were randomly grouped, 10 mice in each group. Experimental mice were intragastrically given diethylstilbestrol 0.2 mg daily for 12 days. Different kinds and dosages of the inhibitors of the cytochrome bc1 complex were given intraperitoneally or intragastrically 30 min after the last administration. Indometacin (50 mg/kg) was injected intraperitoneally as positive control, PGF2α (1.3 mg/kg) or oxytocin (20 U/kg) was injected intraperitoneally 1 h later, and the writhe starting time (reaction latency) and the number of writhing times within 30 min were observed and recorded.

Kunming female mice [2] = assay: oxytocin-induced dysmenorrhea model in mice (diethylstilbestrol sensitization); format: in vivo, mouse; conditions: Table 9, positive control 50 mg/Kg intraperitoneal
Method: as §1

[3] = Table 5, positive control 50 mg/Kg intraperitoneal
[4] = Table 8, positive control 50 mg/Kg intraperitoneal

For COc1ccc2c(c1)c(CC(=O)O)c(C)n2C(=O)c1ccc(Cl)cc1 [Indomethacin, reference compound], the “ear swelling degree versus control group” value (mice) was “no statistical difference”, the Ear swelling (mice; positive control intraperitoneal, 1 hour after xylene) was 12 ± 3.74 mg and the Writhe starting time (Kunming male mice; Table 3, 50 mg/Kg intraperitoneal) was 4.6 ± 0.8 min. The “Number of writhing times” value (Kunming male mice; Table 3, 50 mg/Kg intraperitoneal, 1 hour before acetic acid) was 15.8 ± 3.9, the Writhe starting time (Kunming male mice; [3]) was 3.4 ± 1.0 min and the “Number of writhing times” value (Kunming male mice; [3]) was 24.8 ± 4.8. The “Paw swelling thickness 1 h” value (SD rats; 1 h after carrageenan) was 5.52 ± 0.39 mm, the “Paw swelling thickness 2 h” value (SD rats; 2 h after carrageenan) was 5.65 ± 0.39 mm and the “Paw swelling thickness 3 h” value (SD rats; 3 h after carrageenan) was 6.11 ± 0.15 mm. For the same compound, the “Paw swelling (right foot weight-left foot weight)” value (SD rats; 3 hours after carrageenan) was 0.518 ± 0.05 g, the Writhe starting time (Kunming female mice [1]; Table 7, 50 mg/Kg intraperitoneal) was 1.89 ± 0.6 min and the “Number of writhing times” value (Kunming female mice [1]; Table 7, 50 mg/Kg intraperitoneal, 1 h before PGF2α (1.3 mg/kg)) was 15.0 ± 2.1. For the same compound, the Writhe starting time (Kunming female mice [1]; [4]) was 2.1 ± 1.2 min, the “Number of writhing times” value (Kunming female mice [1]; [4]) was 16.8 ± 2.5 and the Writhe starting time (Kunming female mice [2]) was 3.5 ± 1.0. The “Number of writhing times” value (Kunming female mice [2]; oxytocin (20 U/kg), within 30 min) was 14.7 ± 1.4.
